Test results reported in patent US10934263B2, “Charged ion channel blockers and methods for use” (Nocion Therapeutics, Inc., priority 2019, dated 2021).

These compounds were tested against T1, NaV1.7 (Homo sapiens, UniProt Q15858) (assay: Whole cell patch clamp, external block of NaV1.7 current (compound in external solution)). Settings: % inhibition at test concentration 1,000 μM, compound applied externally; read-out: Nav1.7 Extracellular Inhibition.
T1 construct: expressed in transfected cells; tetracycline-inducible, kept under hygromycin and blasticidin
T1 sequence (Q15858 whole entry): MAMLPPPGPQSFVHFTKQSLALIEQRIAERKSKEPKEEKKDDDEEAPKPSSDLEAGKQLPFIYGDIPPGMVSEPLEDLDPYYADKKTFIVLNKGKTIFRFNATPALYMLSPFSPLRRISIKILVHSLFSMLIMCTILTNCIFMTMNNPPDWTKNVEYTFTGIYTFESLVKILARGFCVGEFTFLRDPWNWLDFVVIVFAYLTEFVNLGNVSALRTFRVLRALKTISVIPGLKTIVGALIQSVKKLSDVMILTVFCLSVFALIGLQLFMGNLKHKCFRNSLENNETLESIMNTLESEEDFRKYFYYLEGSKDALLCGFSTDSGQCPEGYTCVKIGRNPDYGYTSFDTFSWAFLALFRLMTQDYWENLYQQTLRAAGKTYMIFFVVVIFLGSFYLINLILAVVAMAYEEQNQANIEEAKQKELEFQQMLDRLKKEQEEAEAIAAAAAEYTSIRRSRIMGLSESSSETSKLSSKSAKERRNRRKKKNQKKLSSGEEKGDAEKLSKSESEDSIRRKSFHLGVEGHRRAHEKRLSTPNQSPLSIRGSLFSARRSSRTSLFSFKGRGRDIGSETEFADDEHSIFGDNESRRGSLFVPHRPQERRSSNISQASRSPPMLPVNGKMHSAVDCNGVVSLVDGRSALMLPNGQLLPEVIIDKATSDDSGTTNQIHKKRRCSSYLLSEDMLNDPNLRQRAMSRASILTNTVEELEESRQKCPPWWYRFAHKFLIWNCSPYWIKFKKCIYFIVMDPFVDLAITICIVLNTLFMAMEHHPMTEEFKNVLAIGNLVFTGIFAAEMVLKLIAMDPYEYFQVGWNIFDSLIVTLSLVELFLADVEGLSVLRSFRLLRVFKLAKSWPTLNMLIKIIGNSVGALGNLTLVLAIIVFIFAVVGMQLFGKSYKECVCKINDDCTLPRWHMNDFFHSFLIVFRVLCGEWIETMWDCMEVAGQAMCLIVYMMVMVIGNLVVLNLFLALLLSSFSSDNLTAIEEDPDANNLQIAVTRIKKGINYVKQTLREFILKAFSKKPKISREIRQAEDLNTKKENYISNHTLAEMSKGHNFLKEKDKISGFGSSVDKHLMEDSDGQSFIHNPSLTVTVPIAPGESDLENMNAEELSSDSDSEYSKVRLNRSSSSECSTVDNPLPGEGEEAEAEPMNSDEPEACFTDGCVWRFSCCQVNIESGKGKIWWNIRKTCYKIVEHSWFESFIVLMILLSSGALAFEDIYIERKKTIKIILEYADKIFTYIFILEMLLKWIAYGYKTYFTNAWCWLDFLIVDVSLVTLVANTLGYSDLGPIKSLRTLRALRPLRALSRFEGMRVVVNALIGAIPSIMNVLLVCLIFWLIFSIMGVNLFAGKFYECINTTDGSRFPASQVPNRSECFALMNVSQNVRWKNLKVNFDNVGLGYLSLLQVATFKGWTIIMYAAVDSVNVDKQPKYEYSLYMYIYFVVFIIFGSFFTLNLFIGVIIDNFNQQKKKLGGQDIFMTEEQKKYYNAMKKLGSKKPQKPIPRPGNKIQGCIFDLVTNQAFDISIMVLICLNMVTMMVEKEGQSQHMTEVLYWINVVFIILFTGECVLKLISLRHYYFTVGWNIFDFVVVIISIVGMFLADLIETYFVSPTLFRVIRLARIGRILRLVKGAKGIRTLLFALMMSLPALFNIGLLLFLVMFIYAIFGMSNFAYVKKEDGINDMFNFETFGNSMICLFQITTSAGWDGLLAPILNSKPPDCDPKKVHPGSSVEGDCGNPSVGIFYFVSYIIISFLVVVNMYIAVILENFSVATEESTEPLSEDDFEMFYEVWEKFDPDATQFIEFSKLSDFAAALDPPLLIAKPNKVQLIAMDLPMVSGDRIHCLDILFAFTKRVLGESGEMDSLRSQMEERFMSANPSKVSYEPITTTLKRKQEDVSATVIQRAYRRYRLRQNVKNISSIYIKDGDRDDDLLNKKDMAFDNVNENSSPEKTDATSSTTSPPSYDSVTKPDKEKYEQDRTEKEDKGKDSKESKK
Format: cell-based
Protocol: Representative compounds of the invention were synthesized according to the described methods and tested for the ability to inhibit voltage-gated sodium channels.
NaV1.7 was expressed upon induction with tetracycline. Cells were cultured in DMEM containing 10% dialyzed Fetal Bovine Serum (VWR, Radnor, Pa.), 1% Glutamax (VWR, Radnor, Pa.), 1% Penicillin-Streptomycin (VWR, Radnor, Pa.), 100 mg/L Hygromycin (Thermo Fisher Scientific, Waltham, Mass. and 5 mg/L Blasticidin (Alfa Aesar, Haverhill, Mass.). Cells were grown and maintained at 37° C. in a humidified environment containing 10% CO2 in air. Cells were detached from the culture flask for passage and harvested using 0.05% Trypsin-EDTA (Thermo Fisher Scientific, Waltham, Mass.). To induce NaV1.7, cells were induced with tetracycline (0.1-1 μg/mL, IBI Scientific, Peosta, Iowa) the day before recording and plated onto 24-well plates. Cells were washed with DPBS (VWR, Radnor, Pa.), trypsinized and then triturated five times in 10 mL of growth media to break apart cell aggregates. For one 24-well plate, 2 mL of cell suspension was mixed with 23 mL of fresh growth media and 0.1-1 μg/mL tetracycline added. 1 ml of mixed media with cells was then added to each well of a 24-well plate, with a 12 mm coverslip already placed in the bottom of the well. Cells were then incubated in 37° C. and 10% CO2 overnight.
The intracellular solution contained the following (in mM) CsCl 135, NaCl 10, EGTA 10, HEPES 10, MgCl2 2, adjusted to pH 7.2 with CsOH. The external solution was a normal Ringer solution containing (in mM) NaCl 155, HEPES 10, glucose 10, KCl 3.5, CaCl2 1.5, MgCl2 1 adjusted to pH 7.4 with NaOH. CsCl is from Alfa Aesar, Haverhill, Mass. All other chemicals are from Sigma-Aldrich, St. Louis, Mo. In order to test the degree of internal block by test compounds the compounds were dissolved in internal solution at the indicated test concentration. […] In order to test the degree of external block by test compounds the compounds were dissolved in external solution at the indicated test concentration.
18-24 hours after cells were induced with tetracycline, coverslips were placed into a chamber filled with Normal Ringer solution at room temperature and the chamber placed on a microscope. Pipettes were pulled from borosilicate glass on a P97 puller (Sutter Instrument, Novato, Calif.) and polished with a MF-830 Microforge (Narishige International USA, Inc, Amityville, N.Y.) to have a resistance of 1.5-2.5 MΩ when filled with CsCl internal solution at room temperature. Healthy cells (those that are round and translucent with no visible blemishes) were chosen for seal formation. A seal was formed between the pipette and the cell, and a brief pulse of suction was used to “break in” and establish the whole-cell configuration. The membrane potential was held at −100 mV before the voltage protocol began. Only cells with series resistance between 1.5-5 MΩ were retained for analysis. The voltage protocol was as follows: Cells were held at −100 mV for 12 ms followed by a hyperpolarizing step to −105 mV for 12 ms to monitor the leak. Cells were then stepped back to −100 mV for 40 ms. Cells were then depolarized to −20 mV for 10 ms and then returned to −100 mV for 26 ms.
Once the recording was started, the voltage protocol was run at 30 second intervals for 5 minutes to get a stable baseline. This is followed by 5 Hz stimulation of the same voltage protocol run until the end of experiment. […] The test compound is added for 5 minutes before washing out with normal Ringer's solution. Currents were recorded using PatchMaster software with Heka EPC10 (HEKA Electronics, Lambrecht, Germany). Only cells with inward current amplitudes at −20 mV between 400 pA and 4 nA were accepted. In addition, cells having leak currents greater than 10% of their current amplitudes were discarded. […]

| inhibition at 1000 µM | SMILES |
| --- | --- |
| < 40% | CCOC(=O)Cn1cc(C)c[n+]1CC(=O)Nc1c(C)cccc1C [Compound 76] |
| < 40% | Cc1cccc(C)c1NC(=O)Cn1ccc[n+]1CC(=O)Nc1c(C)cccc1C [Compound 109] |
| < 40% | CCOC(=O)CCCn1ccc[n+]1CC(=O)Nc1c(C)cccc1C [Compound 75] |

These compounds were tested against T1, NaV1.7 (assay: Whole cell patch clamp, internal block of NaV1.7 current (compound in internal solution)). Settings: % inhibition at 10 μM, compound applied internally, manual patch clamp; read-out: Nav1.7 Intracellular Inhibition.
Format: cell-based
Procedure, shortened: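 Tetracycline-induced NaV1.7 cells, whole-cell patch clamp at room temperature with compound in CsCl internal solution (pH 7.2), Ringer bath (pH 7.4). Held at −100 mV, steps to −20 mV; after baseline, four 30-s 5 Hz trains. Peak inward current at end of last train divided by baseline gives fraction remaining.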

| SMILES | inhibition at 10 µM |
| --- | --- |
| CCOC(=O)Cn1cc(C)c[n+]1CC(=O)Nc1c(C)cccc1C [Compound 76] | 70 to 95% |
| Cc1cccc(C)c1NC(=O)C[n+]1cccn1C1CCCC1 [Compound 71] | > 95% |
| Cc1cccc(C)c1NC(=O)C[n+]1cccc(C(F)(F)F)c1 [Compound 66] | 70 to 95% |
| Cc1cccc(C)c1NC(=O)C[n+]1cccc(S(C)(=O)=O)c1 [Compound 46] | 70 to 95% |
| Cc1cccc(C)c1NC(=O)C[n+]1cccn1CC#N [Compound 69] | 40 to 70% |
| CNC(=O)Cc1ccc[n+](CC(=O)Nc2c(C)cccc2C)c1 [Compound 33] | 70 to 95% |
| Cc1cccc(C)c1NC(=O)C[n+]1cccc(N2CCCC2)c1 [Compound 51] | > 95% |
| Cc1cccc(C)c1NC(=O)C[n+]1cccc(S(=O)(=O)N(C)C)c1 [Compound 47] | 70 to 95% |
| Cc1cccc(C)c1NC(=O)C[n+]1cccc(Cc2ccccc2)c1 [Compound 34] | 70 to 95% |
| CCNc1ccc[n+](CC(=O)Nc2c(C)cccc2C)c1 [Compound 50] | > 95% |
| Cc1cccc(C)c1NC(=O)C[n+]1cc2ccccc2n1C [Compound 54] | 70 to 95% |
| Cc1cccc(C)c1NC(=O)C[n+]1cccn1CC1CC1 [Compound 73] | > 95% |
| Cc1cccc(C)c1NC(=O)C[n+]1cc(F)cc(-c2ccccc2)c1 [Compound 77] | > 95% |
| CCOC(=O)CCCn1ccc[n+]1CC(=O)Nc1c(C)cccc1C [Compound 75] | > 95% |
| CCCn1c(C)cc[n+]1CC(=O)Nc1c(C)cccc1C [Compound 81] | 70 to 95% |

The next lines start with the values.

| inhibition at 10 µM | SMILES |
| --- | --- |
| 40 to 70% | COC(=O)c1c(F)c[n+](CC(=O)Nc2c(C)cccc2C)cc1F [Compound 89] |
| < 40% | CCn1ccc(C)[n+]1CC(=O)Nc1c(C)cccc1C [Compound 95] |
| 70 to 95% | CCOC(=O)c1cc(C)[n+](CC(=O)Nc2c(C)cccc2C)n1C [Compound 84] |
| 70 to 95% | CCn1c(C)cc[n+]1CC(=O)Nc1c(C)cccc1C [Compound 104] |
| 70 to 95% | CCCn1ccc(C)[n+]1CC(=O)Nc1c(C)cccc1C [Compound 101] |
| 70 to 95% | Cc1cccc(C)c1NC(=O)C(CC(C)C)[n+]1ccccc1 (stereo not drawn) [Compound 108] |
| 70 to 95% | Cc1cccc(C)c1NC(=O)C[n+]1c(C)cc(C)n1C [Compound 94] |
| > 95% | Cc1cccc(C)c1NC(=O)C[n+]1cc(OCc2ccccc2)ccc1Cl [Compound 103] |
| > 95% | Cc1cccc(C)c1NC(=O)Cn1ccc[n+]1CC(=O)Nc1c(C)cccc1C [Compound 109] |
| 70 to 95% | COc1cc(OC)c[n+](CC(=O)Nc2c(C)cccc2C)c1 [Compound 98] |
| 70 to 95% | CCCCn1ccc[n+]1CC(=O)Nc1c(C)cccc1C [Compound 83] |
| > 95% | Cc1cccc(C)c1NC(=O)C(Cc1ccccc1)[n+]1ccccc1 (stereo not drawn) [Compound 106] |
